{
  "source": "patent US9074255B2",
  "about": "“Method of predicting a predisposition to QT prolongation” (Vanda Pharmaceuticals, Inc., priority 2009, dated 2015)",
  "key": {"QT interval [1]": {"system": "QT interval", "assay": "FAM13A1 SNP genotypes and QT prolongation (QTcF) following administration of iloperidone", "type": "in vivo, human", "procedure": "(§1) Since the QT interval changes with changes in heart rate, the QT interval is often measured as a corrected QT (QTc) interval. Any number of formulas may be employed to calculate the QTc, including, for example, the Fridericia formula (QTcF), the Bazett formula (QTcB), and the Rautaharju formula (QTp), among others. In the studies described herein, QT was calculated using the Fridericia formula. However, the present invention includes the use of any such formula or method for calculating a QTc or an uncorrected QT."}, "QT interval [2]": {"system": "QT interval", "assay": "QT prolongation vs presence or absence of TT genotype at rs3775378 in 174 individuals given iloperidone", "type": "in vivo, human", "settings": "24 mg/day B.I.D. oral, two weeks", "procedure": "as §1, with “QT. Using the genotypes at the SNP loci above, it is possible, with a high degree of certainty, to predict an individual's predisposition to QT prolongation.” for “QT.”"}},
  "data": [
    {"smiles": "COc1cc(C(C)=O)ccc1OCCCN1CCC(c2noc3cc(F)ccc23)CC1", "note": "[iloperidone, 1-[4-[3-[4-(6-fluoro-1,2-benzisoxazol-3-yl)-1-piperidinyl]propoxy]-3-methoxyphenyl]ethanone]", "values": [
      {"measurement": "Lowest QTc change (genotype)", "setting": "QT interval [1]; SNP_A-1824897, rs10008568, allele A=A, B=G", "result": "nonAB"},
      {"measurement": "Lowest QTc change (genotype)", "setting": "QT interval [1]; SNP_A-1906173, rs3775378, allele A=C, B=T", "result": "non-BB"},
      {"measurement": "Lowest QTc change (genotype)", "setting": "QT interval [1]; SNP_A-1943446, rs17014602, allele A=C, B=G", "result": "non-AA"},
      {"measurement": "Lowest QTc change (genotype)", "setting": "QT interval [1]; SNP_A-1977994, rs17014483, allele A=C, B=T", "result": "non-BB"},
      {"measurement": "Lowest QTc change (genotype)", "setting": "QT interval [1]; SNP_A-2152738, rs1458553, allele A=A, B=G", "result": "nonAA"},
      {"measurement": "Lowest QTc change (genotype)", "setting": "QT interval [1]; SNP_A-2190887, rs2609260, allele A=A, B=G", "result": "nonAB"},
      {"measurement": "Lowest QTc change (genotype)", "setting": "QT interval [1]; SNP_A-4287986, rs2609265, allele A=C, B=T", "result": "nonAB"},
      {"measurement": "Lowest QTc change (genotype)", "setting": "QT interval [1]; SNP_A-4290819, rs17014687, allele A=C, B=T", "result": "non-BB"},
      {"measurement": "Lowest QTc change (genotype)", "setting": "QT interval [1]; SNP_A-4291320, rs2609264, allele A=C, B=T", "result": "nonAB"},
      {"measurement": "Lowest QTc change (genotype)", "setting": "QT interval [1]; SNP_A-4296194, rs12507401, allele A=C, B=G", "result": "non-AA"},
      {"measurement": "High QT, + test (number of individuals)", "setting": "QT interval [2]; Change threshold QT > 5 msec", "result": 9},
      {"measurement": "High QT, − test (number of individuals)", "setting": "QT interval [2]; Change threshold QT > 5 msec", "result": 101},
      {"measurement": "Low QT, + test (number of individuals)", "setting": "QT interval [2]; Change threshold QT > 5 msec", "result": 0},
      {"measurement": "Low QT, − test (number of individuals)", "setting": "QT interval [2]; Change threshold QT > 5 msec", "result": 63},
      {"measurement": "High QT, + test (number of individuals)", "setting": "QT interval [2]; Change threshold QT > 15 msec", "result": 8},
      {"measurement": "High QT, − test (number of individuals)", "setting": "QT interval [2]; Change threshold QT > 15 msec", "result": 59},
      {"measurement": "Low QT, + test (number of individuals)", "setting": "QT interval [2]; Change threshold QT > 15 msec", "result": 1},
      {"measurement": "Low QT, − test (number of individuals)", "setting": "QT interval [2]; Change threshold QT > 15 msec", "result": 105},
      {"measurement": "High QT, + test (number of individuals)", "setting": "QT interval [2]; Change threshold QT > 30 msec", "result": 6},
      {"measurement": "High QT, − test (number of individuals)", "setting": "QT interval [2]; Change threshold QT > 30 msec", "result": 22},
      {"measurement": "Low QT, + test (number of individuals)", "setting": "QT interval [2]; Change threshold QT > 30 msec", "result": 3},
      {"measurement": "Low QT, − test (number of individuals)", "setting": "QT interval [2]; Change threshold QT > 30 msec", "result": 142}
    ]}
  ]
}
